Test results reported in US9663463B2, “3-azabicyclo[3.1.0]hexane derivative and use thereof for medical purpose” (priority 2013, dated 2017).
Where a name gives a salt, the structure may show the parent alone.

Columns and labels:
[1] = target: human μ-opioid receptor (Homo sapiens (Human), UniProt P35372); assay: Antagonist activity test using [35S]-GTPγS bond as index using human μ-opioid receptor-expressing cell membrane; type: biochemical
Procedure: Cells in which a human μ-opioid receptor had been highly expressed was purchased from ChanTest (Cleveland). The cells were cultured in a carbon dioxide gas culturing apparatus by using a Ham's F12 culture medium (Invitrogen) containing 10% of fetal bovine blood serum, 1% of non-essential amino acids, 0.4 mg/ml of G418, 100 U/ml of penicillin and 100 μg/ml of streptomycin. The cultured cells were suspended by using a 0.25% trypsin 1 mM EDTA solution, the suspension was collected by using phosphate-buffered saline and centrifuged at 4° C. and 1,000 rpm for 10 minute to remove the supernatant, whereby a cell mass was obtained. […] Similar homogenization and centrifugation operations were repeated on the sediment, a homogenized buffer was added again to the obtained sediment, and the resultant was similarly homogenized to give a membrane fraction solution. The obtained membrane fraction solution was dispensed, rapidly frozen and stored under freezing at −70° C. or less until use. Furthermore, the protein concentration of the obtained membrane fraction solution was measured by using a BCA protein Assay Kit (Cat. 23227, Pierce) according to the protocol attached to the kit.
The cell membrane fraction solution in which the human μ-opioid receptor had expressed, which had been stored under freezing, was melted, a GTP assay buffer (100 mM NaCl, 5 mM MgCl2, 1 mM EDTA-containing 50 mM Hepes (pH 7.4)) was added thereto, and the resultant was homogenized repeatedly twice by using a Polytron homogenizer (SMT Multi Disperser PB95) under ice cooling at 12,000 rpm for 20 seconds to give a homogeneous solution, and the homogeneous solution was diluted to 0.036 mg/ml with a GTP assay buffer containing 18.2 μM of GDP (final concentration: […]). The dilution was incubated for 15 minutes or more under ice cooling until the reaction was initiated. […] [^35S]-GTPγS (NEG030X, Perkinelmer) was diluted with a GTP assay buffer so as to be 0.616 nM (final concentration: 0.08 nM). The resultant was diluted with a GTP assay buffer so as to be 200 nM (final concentration: 10 nM) by using [D-Ala^2, N-Me-Phe^4, Gly^5-ol]-enkephalinacetate (DAMGO, Sigma) as a μ-opioid receptor agonist. WGA Coated PVT SPA Beads (RPNQ0001, Perkinelmer) were added so as to be 20 mg/ml with a GTP assay buffer, and the resultant was suspended (final concentration: 1 mg/well). 4 μL/well of a test substance solution, 10 μL/well of a DAMGO solution, 26 μL/well of a [^35S]-GTPγS solution, […] of a suspension liquid of WGA Coated PVT SPA Beads, and 110 μL/well of the membrane fraction solution were added to a 96 well plate (1450-401, Perkinelmer), the top part of the plate was sealed, and a reaction was performed at 30° C. for 60 minutes under stirring with a plate shaker. For each measurement plate, a well to which DMSO had been added instead of the test substance, and a well to which DMSO had been added instead of the test substance and a GTP assay buffer had been added instead of the DAMGO solution were prepared. Furthermore, after the reaction was completed, the reactant was centrifuged at room temperature and 1,000 rpm for 3 minutes, and the radioactivity was measured by a microplate scintillation luminescence counter (Perkinelmer).
The IC50 value of the test substance was calculated by using Graphpad Prism 5.

[2] = in vitro; type: in vitro ADME, mice; conditions: Crl:CD-1 (ICR), mouse, pH 7.4; murine serum, equilibrium dialysis, 37° C., 5 to 6 hours; read-out: Protein binding rate (converted)
Procedure: The protein binding rate was determined by equilibrium dialysis method using the RED Device (8K MWCO, Rapid Equilibrium Dialysis Device, Thermo Scientific). The test substances that had been dissolved in DMSO were added to the serum that was collected from Crl: CD-1 (ICR) mice fasted overnight, so that the final concentration of DMSO became 1% (v/v). The serum to which the test substance had been added was added to the inner side of the dialysis membrane of the RED Device, and PBS (phosphate buffer saline, pH 7.4) containing 0.01% (v/v) Tween 80 was added to the outside in accordance with the method for using the RED Device and incubated at 37° C. for 5 to 6 hours with ellipsoidal shaking at 100 rpm so that the concentration of the unbound test substance in the serum and the concentration of the test substance in the PBS reached equilibrium. After the incubation was completed, the respective solutions were collected and stored under freezing at −60° C. or less as measurement samples. The proteins were removed from the measurement sample by adding acetonitrile in an amount of 5-fold or more of the amount of the internal standard substance and the serum sample, and the supernatants were measured by LC/MS/MS (liquid chromatograph—triple quadrupole mass spectrometer). The serum samples were measured after suitably diluting with distilled water as necessary.
A: the concentration of the test substance in the PBS sample
B: the concentration of the test substance in the serum sample

[3] = Plasma concentration of test substance at ED50 value (mice, LC/MS/MS); type: in vivo; conditions: at the ED50 value, at time of morphine administration, oral, linear regression from two doses
Procedure: The concentration of the test substances in blood plasma was confirmed by using mice of the same week-old for the same dose as that used in the evaluation of the anti-pruritic effect. The test substance was administered by forced oral administration of an administration vehicle prepared in a similar manner to that in the evaluation of the anti-pruritic effect under a non-fasting condition. The blood samples were collected from the orbital venous plexus, within from 15 minutes after the administration of the test substance to after 180 minutes at the maximum, for multiple times including the timing at which the morphine solution was intracisternally administered, under inhalation anesthesia with diethyl ether or isoflurane using a heparin-treated hematocrit tubes. The collected blood samples were immediately ice-cooled and centrifuged at 1,800 g for 15 minutes at 4° C., and the plasma fractions were transferred and stored under freezing at −30° C. or less until measurement.
The concentrations of the test substances in plasma were measured using LC/MS/MS. Furthermore, as the measurement samples for LC/MS/MS, the supernatants obtained by adding an internal standard substance and acetonitrile in an amount within a range from 5-fold to 10-fold of the amount of the plasma to the collected plasma samples, and removing proteins therefrom, was used.

[4] = tested on: pruritus mice model to which morphine had been intracisternally administered; assay: Anti-pruritic effect in pruritus mice model to which morphine had been intracisternally administered; type: in vivo; conditions: Mus musculus; oral administration, male ICR mice, inhibition of morphine-induced scratching behavior; read-out: ED50
Procedure: As experimental animals, male ICR (Cr1j: CD1 (ICR): Charles River Japan) mice were used at 5 to 6-week old. The mice were placed in an acrylic cage (colorless and transparent, W 13.5 cm×D 9.5 cm×H 40 cm) for observing scratching behavior for 30 minutes or more to thereby allow the mice to get used to the observation environment, and the test substance solutions were forcedly orally administered to the test substance-administered groups. In addition, an administration vehicle was forcedly orally administered to the normal control group and the pathological control group. A necessary amount of the test substance was weighed and formed into a micropowder in an agate mortar, an administration vehicle, a 0.5 w/v % methyl cellulose 400 solution (Wako Pure Chemical Industries Ltd.) was added little by little, and preparation was performed by suspending or dissolving so as to give an intended concentration (from 0.025 to 3 mg/ml). The test doses were preset to suitable doses in the range in which the maximum dose is 30 mg/10 ml/kg.
Based on 30 minutes after the forced oral administration of the test substance as a criterion, the time for the intracisternal administration of morphine was suitably set up to 120 minutes after at the maximum, with consideration for the times of maximum plasma concentration of the respective test substances, in the case when the in vivo pharmacokinetics of the test substance had been confirmed in advance. Furthermore, saline was intracisternally administered to the normal control group, and the above-mentioned morphine solution was intracisternally administered to the pathogenic control group, so as to be 5 μL/site at the same time as that of the test substance group after the forced oral administration of the administration vehicle in either case.
The behavior of each mouse within 60 minutes from the intracisternal administration of the morphine solution or saline was recorded by a digital video camera that was installed immediately above the acrylic cage, the images were stored in a digital video recorder, and the number of frequency of the scratching behavior was measured. The number of frequency of the scratching behavior was measured with deeming a behavior in which the mouse raised its hindlimb, scratched the facial surface and the peripheral sites thereof, and got the hindlimb off from the body within 30 minutes from after the intracisternal administration of the morphine or saline as one time.
The anti-pruritic effect of each test substance was obtained as follows. As an inhibition ratio against the number of frequency of the scratching behavior on the pathological control group, the inhibition ratio (%) of the respective individuals and the average value thereof were calculated from the following formula, and an ED50 value was calculated based on the obtained inhibition ratio. Inhibition ratio of each individual (%)={1−(A−Vehicle)/(Morphine−Vehicle)}×100 Morphine: the average of the scratching number of the pathological control group Vehicle: the average of the scratching number of the normal control group A: the scratching number of each individual in the test substance-administered group

[5] = target: hERG current (Homo sapiens (Human), UniProt Q12809); assay: cell-based
Chain of hERG current (Q12809 whole entry): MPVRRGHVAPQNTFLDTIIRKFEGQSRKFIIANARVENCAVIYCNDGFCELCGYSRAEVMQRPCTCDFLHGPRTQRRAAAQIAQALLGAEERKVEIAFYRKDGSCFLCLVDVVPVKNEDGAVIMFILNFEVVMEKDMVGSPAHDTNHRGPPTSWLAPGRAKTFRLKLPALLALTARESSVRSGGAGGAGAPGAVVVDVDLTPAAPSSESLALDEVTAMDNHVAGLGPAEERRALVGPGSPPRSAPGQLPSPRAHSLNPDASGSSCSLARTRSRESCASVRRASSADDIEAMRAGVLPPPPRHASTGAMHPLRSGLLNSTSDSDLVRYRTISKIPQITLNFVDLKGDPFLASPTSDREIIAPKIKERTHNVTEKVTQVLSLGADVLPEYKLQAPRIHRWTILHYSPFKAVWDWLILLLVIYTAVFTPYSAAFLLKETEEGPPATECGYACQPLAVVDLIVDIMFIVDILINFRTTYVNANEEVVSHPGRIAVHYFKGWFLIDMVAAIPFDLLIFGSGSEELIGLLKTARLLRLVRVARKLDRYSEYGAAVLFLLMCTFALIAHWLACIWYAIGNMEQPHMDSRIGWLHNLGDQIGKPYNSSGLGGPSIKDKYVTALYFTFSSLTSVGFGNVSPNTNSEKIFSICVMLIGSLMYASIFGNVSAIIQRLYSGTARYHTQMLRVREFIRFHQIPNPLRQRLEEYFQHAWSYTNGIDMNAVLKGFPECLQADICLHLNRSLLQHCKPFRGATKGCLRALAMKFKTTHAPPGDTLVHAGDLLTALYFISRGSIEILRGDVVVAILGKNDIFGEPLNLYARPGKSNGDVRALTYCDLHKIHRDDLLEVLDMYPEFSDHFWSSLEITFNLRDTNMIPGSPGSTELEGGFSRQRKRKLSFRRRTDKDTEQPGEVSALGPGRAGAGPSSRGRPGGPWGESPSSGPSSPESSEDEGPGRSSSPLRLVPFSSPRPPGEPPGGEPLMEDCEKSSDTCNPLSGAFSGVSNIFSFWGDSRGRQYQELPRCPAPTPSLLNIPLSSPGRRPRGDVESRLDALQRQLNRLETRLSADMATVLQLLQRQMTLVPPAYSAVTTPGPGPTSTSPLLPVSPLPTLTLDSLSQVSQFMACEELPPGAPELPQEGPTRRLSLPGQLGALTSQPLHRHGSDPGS
Source text: A: the suppression rate (%) of the test substance in each cell
B: the average suppression rate (%) of the vehicle control group

SMILES | IC50 [1] [nM] | fraction unbound [2] | Plasma concentration of test substance [3] [nM] | ED50 [4] [mg/kg] | IC50 [5] [nM]
CC[C@]1(c2cccc(NS(=O)(=O)C3CC3)c2)[C@@H]2CN(CC3(O)Cc4cc(F)c(F)cc4C3)C[C@@H]21 [Example 20-(a), N-(3-{(1R,5S,6r)-3-[(5,6-difluoro-2-hydroxy-2,3-dihydro-1H-inden-2-yl)methyl]-6-ethyl-3-azabicyclo[3.1.0]hexan-6-yl}phenyl)cyclopropanesulfonamide] | 4.1 | 0.006 |  |  | 
CC[C@]1(c2cc(F)cc(NS(=O)(=O)C3CC3)c2)[C@@H]2CN(CC3(OC)Cc4ccccc4C3)C[C@@H]21 [Example 12-(b), N-(3-{(1R,5S,6r)-6-ethyl-3-[(2-methoxy-2,3-dihydro-1H-inden-2-yl)methyl]-3-azabicyclo[3.1.0]hexan-6-yl}-5-fluorophenyl)cyclopropanesulfonamide hydrochloride] | 12 | 0.002 | 193 | 3.2 | 
CC[C@]1(c2cc(NS(=O)(=O)C3CC3)ccc2F)[C@@H]2CN(CCCN3CCC(F)(F)C3)C[C@@H]21 [Example 9-(b), N-(3-{(1R,5S,6r)-3-[3-(3,3-difluoropyrrolidin-1-yl)propyl]-6-ethyl-3-azabicyclo[3.1.0]hexan-6-yl}-4-fluorophenyl)cyclopropanesulfonamide hydrochloride] | 2.5 | 0.173 |  |  | 
CCOC1(CN2C[C@@H]3[C@H](C2)[C@@]3(CC)c2cccc(NS(=O)(=O)C3CC3)c2)Cc2ccccc2C1 [Example 13-(b), N-(3-{(1R,5S,6r)-3-[(2-ethoxy-2,3-dihydro-1H-inden-2-yl)methyl]-6-ethyl-3-azabicyclo[3.1.0]hexan-6-yl}phenyl)cyclopropanesulfonamide hydrochloride] | 4.1 |  | 71.9 | 2.4 | 
CC[C@]1(c2cccc(NS(=O)(=O)C3CC3)c2)[C@@H]2CN(CCCC3(OC)CCC(F)(F)CC3)C[C@@H]21 [Example 6-(b), N-(3-{(1R,5S,6r)-3-[3-(4,4-difluoro-1-methoxycyclohexyl)propyl]-6-ethyl-3-azabicyclo[3.1.0]hexan-6-yl}phenyl)cyclopropanesulfonamide hydrochloride] |  | 0.039 |  | 0.42 | 660
COC1(CN2C[C@@H]3[C@H](C2)[C@@]3(C)c2cccc(NS(=O)(=O)C3CC3)c2)Cc2ccccc2C1 [Example 18-(b), N-(3-{(1R,5S,6r)-3-[(2-methoxy-2,3-dihydro-1H-inden-2-yl)methyl]-6-methyl-3-azabicyclo[3.1.0]hexan-6-yl}phenyl)cyclopropanesulfonamide hydrochloride] | 16 | 0.007 |  |  | 400
C=C[C@]1(c2cccc(NS(=O)(=O)C3CC3)c2)[C@@H]2CN(CC3(O)Cc4ccccc4C3)C[C@@H]21 [Example 19-(b), N-(3-{(1R,5S,6r)-3-[(2-hydroxy-2,3-dihydro-1H-inden-2-yl)methyl]-6-vinyl-3-azabicyclo[3.1.0]hexan-6-yl}phenyl)cyclopropanesulfonamide hydrochloride] | 4.5 | 0.009 |  |  | 
